Active and inactive are the calls of the source.

The record followed here is ChEMBL document CHEMBL1201862, “PubChem BioAssay data set” (2004).

The target of one data set is Albumin (Bos taurus, UniProt P02769). The experiment in a line: Counterscreen for inhibitors of T-cell receptor (TCR)-CD3 interaction: Fluorescence-based biochemical high throughput dose response assay to identify inhibitors of T-cell receptor (TCR)-CD3 interaction using a TAMRA-labeled BSA probe. Format: functional.
Data set [1] in a line: HepG2 cell cytotoxicity, dose response, cytotoxicity control, plate reader, cherry-pick, antagonist series (AID 743416). In kind it is functional, cell-based.
Data set [2] in a line: LGR2 antagonists, dose response, cell-based, HEK293, CRE-luciferase reporter, cherry pick, set 2 (AID 743343).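 Also: transfected cells were stimulated with diluted bursicon conditioned medium after compound addition.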 In kind it is functional.
The nature of data set [3]: HEK293 cell cytotoxicity, dose response, cytotoxicity control, plate reader, cherry-picked samples (AID 743446). Format: functional, cell-based.
Data set [4] is described as follows: MC4R antagonists, dose response, counter-screen for LGR2 antagonist project, cell-based, plate reader, cherry pick (AID 743444).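 Also: transfected HEK 293 cells stimulated with alpha-MSH peptide; potency of inhibitors of the alpha-MSH evoked signal.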 In kind it is functional.
In data set [5] the target is T1, DNA repair protein RAD52 homolog (Homo sapiens, UniProt P43351).
T1 sequence (P43351 whole entry): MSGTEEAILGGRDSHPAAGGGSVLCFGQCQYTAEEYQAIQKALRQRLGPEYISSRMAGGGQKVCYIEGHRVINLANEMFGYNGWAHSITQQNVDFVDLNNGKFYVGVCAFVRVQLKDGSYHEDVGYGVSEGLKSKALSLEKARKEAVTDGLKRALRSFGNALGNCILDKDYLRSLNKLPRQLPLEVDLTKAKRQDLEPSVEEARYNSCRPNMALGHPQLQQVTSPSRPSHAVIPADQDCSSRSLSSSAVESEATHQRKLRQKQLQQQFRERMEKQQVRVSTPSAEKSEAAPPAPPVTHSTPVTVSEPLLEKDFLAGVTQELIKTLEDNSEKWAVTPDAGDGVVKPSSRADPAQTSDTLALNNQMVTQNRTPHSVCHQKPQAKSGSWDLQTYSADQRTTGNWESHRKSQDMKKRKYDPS
Format: functional, biochemical.

Data set [6] is described as follows: Counterscreen for activators of the function of SWI/SNF related, matrix associated, actin dependent regulator of chromatin, subfamily a, member 2 (SMARCA2, BRM): Luminescence-based cell-based high throughput dose response assay to identify non-selective compounds using the VP16 reporter assay. In kind it is functional.
Data set [7] addresses SWI/SNF-related matrix-associated actin-dependent regulator of chromatin subfamily A member 2 (Homo sapiens, UniProt P51531). In words: Luminescence-based cell-based high throughput dose response assay to identify activators of the function of SWI/SNF related, matrix associated, actin dependent regulator of chromatin, subfamily a, member 2 (SMARCA2, BRM). Format: functional.

For data set [8], the target named is DNA repair and recombination protein RAD54-like (Homo sapiens, UniProt Q92698). In words: inhibitors of human RAD54 branch migration, confirmation, biochemical, fluorescence, cherry-picked samples, dose series (AID 651657). Format: functional.
For the next data set, the target named is Cytochrome P450 3A4 (Homo sapiens, UniProt P08684).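 Also: CYP3A4 tested as one member of a cytochrome P450 panel screen.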
The target of a further data set is Cytochrome P450 2C19 (Homo sapiens, UniProt P33261). In words: Cytochrome panel assay with activity outcomes. Panel member name: p450-cyp2c19 Compounds with AC50 equal or less than 10 uM are considered active. In kind it is functional. The settings on record: read-out: AC50.
Data set [9] can be described thus: HEK293T cell cytotoxicity, dose response, cytotoxicity control for HIV Vif inhibitor project, cherry-picks (AID 652208). Format: functional, cell-based.
In data set [10] the target is T2, Low molecular weight phosphotyrosine protein phosphatase (Homo sapiens, UniProt P24666).
T2 sequence (P24666 whole entry): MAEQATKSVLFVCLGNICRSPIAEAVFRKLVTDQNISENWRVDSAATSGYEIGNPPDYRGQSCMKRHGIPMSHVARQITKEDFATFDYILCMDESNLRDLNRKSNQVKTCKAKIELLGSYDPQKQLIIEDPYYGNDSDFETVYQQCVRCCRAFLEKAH
Format: functional. The settings on record: read-out: IC50_Mean.

Data set [11] deals with T2, Low molecular weight phosphotyrosine protein phosphatase. Format: functional. To be noted: read-out: IC50_Mean. This is another data set of the same source.
Data set [12] concerns the target Scavenger receptor class B member 1 (Mus musculus, UniProt Q61009). The experiment in a line: inhibitors of SR-BI-mediated HDL uptake, dose response, cell-based, ldlA[mSR-BI] CHO, DiI fluorescence, dry powder, set 10 (AID 624029). In kind it is functional.
Data set [13] in a line: StAR promoter reporter inhibition counter-screen, dose response, counter-screen for LRH-1 inverse agonist project, cell-based, luminescence, luciferase reporter (AID 651969). Format: functional. (Counterscreens check selectivity or assay interference.)
Data set [14] deals with Nuclear receptor subfamily 5 group A member 2 (Homo sapiens, UniProt O00482). In kind it is functional, cell-based.
The next data set addresses Steroidogenic factor 1 (Homo sapiens, UniProt Q13285). The experiment in a line: Counterscreen for inverse agonists of the liver receptor homolog-1 (LRH-1; NR5A2): Luminescence-based cell-based high throughput dose response assay to identify inverse agonists of the Steroidogenic Factor 1 Nuclear Receptor (SF1; NR5A1). Format: functional.
In data set [15] the target is T3, Fatty acid synthase (Homo sapiens, UniProt P49327). The experiment in a line: FAS thioesterase domain inhibitors, dose response, biochemical, endpoint fluorescence intensity, uHTS hits (AID 624327).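 Also: fluorescence from hydrolysis of an O-methyl fluorescein acyl ester substrate by the enzyme.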 Format: functional.
Data set [16] addresses T3, Fatty acid synthase. In words: FAS thioesterase domain inhibitors, dose response, biochemical, kinetic fluorescence intensity (AID 624326).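 Also: rate of fluorescence rise from hydrolysis of a fluorogenic O-methyl fluorescein ester substrate.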 In kind it is functional.
A further data set deals with Genome polyprotein (dengue virus type 2, UniProt P29990). The experiment in a line: Dengue-2 NS5 methyltransferase inhibitors, primary screen, biochemical, confirmation dose response (AID 588689). Format: functional.
The target of data set [17] is Mitochondrial peptide methionine sulfoxide reductase (Bos taurus, UniProt P54149). Format: functional.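 Also: absorbance read-out, biochemical high-throughput dose-response screen for MsrA inhibitors, confirmatory; recombinant bovine MsrA coupled to E. coli TrxB with NADPH and selenocystamine; potency is for inhibitors of MsrA activity on DMSO substrate.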
In data set [18] the target is T4, Rac GTPase-activating protein 1 (Homo sapiens, UniProt Q9H0H5).
T4 sequence (Q9H0H5 whole entry): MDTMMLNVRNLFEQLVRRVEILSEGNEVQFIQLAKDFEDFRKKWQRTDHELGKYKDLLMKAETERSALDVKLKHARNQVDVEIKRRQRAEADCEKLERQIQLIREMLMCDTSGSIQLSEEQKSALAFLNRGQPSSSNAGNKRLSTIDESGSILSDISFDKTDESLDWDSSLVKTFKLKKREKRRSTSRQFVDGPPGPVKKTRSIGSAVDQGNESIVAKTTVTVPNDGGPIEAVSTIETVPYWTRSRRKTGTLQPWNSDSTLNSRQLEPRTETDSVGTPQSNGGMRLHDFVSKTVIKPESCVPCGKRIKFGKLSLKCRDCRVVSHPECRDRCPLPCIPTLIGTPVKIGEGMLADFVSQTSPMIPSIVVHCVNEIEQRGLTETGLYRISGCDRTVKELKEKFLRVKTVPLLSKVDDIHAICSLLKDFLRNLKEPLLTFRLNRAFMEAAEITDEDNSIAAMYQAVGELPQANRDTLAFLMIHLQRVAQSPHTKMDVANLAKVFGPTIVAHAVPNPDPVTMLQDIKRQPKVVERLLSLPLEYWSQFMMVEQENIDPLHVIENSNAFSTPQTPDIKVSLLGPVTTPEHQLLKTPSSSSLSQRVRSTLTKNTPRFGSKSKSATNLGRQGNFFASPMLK
The experiment in a line: MgcRacGAP GTPase-activating activity inhibitors, confirmation, biochemical, ADP Hunter fluorescence, primary and confirmatory (AID 624330). Format: functional.

The target in data set [19] is T5, Sentrin-specific protease 1 (Homo sapiens, UniProt Q9P0U3). In words: potency of human SENP1 inhibitors, dose response, biochemical, kinetic FRET (AID 651697). The settings on record: read-out: IC50_Mean. Format: functional.
Data set [20] concerns the target T6, Corticotropin-releasing factor receptor 2/Corticotropin-releasing factor-binding protein (Homo sapiens, UniProt P24387+Q13324).
T6 sequence (Q13324 whole entry): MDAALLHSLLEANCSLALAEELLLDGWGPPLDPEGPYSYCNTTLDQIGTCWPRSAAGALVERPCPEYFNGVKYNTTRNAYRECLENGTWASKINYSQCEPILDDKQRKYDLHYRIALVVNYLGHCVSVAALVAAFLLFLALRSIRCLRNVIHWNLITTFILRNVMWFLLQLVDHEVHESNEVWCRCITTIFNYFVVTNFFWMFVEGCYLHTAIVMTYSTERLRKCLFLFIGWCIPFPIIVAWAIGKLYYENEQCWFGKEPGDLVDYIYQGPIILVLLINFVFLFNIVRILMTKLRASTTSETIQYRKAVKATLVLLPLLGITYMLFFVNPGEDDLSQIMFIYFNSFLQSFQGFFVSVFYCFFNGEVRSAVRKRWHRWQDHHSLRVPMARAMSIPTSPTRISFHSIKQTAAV
T6 sequence (P24387 whole entry): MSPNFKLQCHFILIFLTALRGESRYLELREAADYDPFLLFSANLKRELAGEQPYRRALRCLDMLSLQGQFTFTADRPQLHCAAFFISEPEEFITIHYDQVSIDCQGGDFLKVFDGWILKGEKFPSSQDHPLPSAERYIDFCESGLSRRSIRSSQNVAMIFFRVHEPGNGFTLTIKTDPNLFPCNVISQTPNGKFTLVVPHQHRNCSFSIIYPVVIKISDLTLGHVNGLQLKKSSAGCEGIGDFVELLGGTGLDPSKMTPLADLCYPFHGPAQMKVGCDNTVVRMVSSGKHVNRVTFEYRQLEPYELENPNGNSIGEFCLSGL
The experiment in a line: Dose Response confirmation of uHTS hits for small molecule antagonists of the CRF-binding protein and CRF-R2 receptor complex. In kind it is functional. The settings on record: read-out: IC50_Mean.

Data set [21] addresses T6, Corticotropin-releasing factor receptor 2/Corticotropin-releasing factor-binding protein. In words: activators of CRF receptor 2 with binding protein – uHTS hits, confirmation (AID 602473). Format: functional. The settings on record: read-out: EC50_Mean.
In data set [22] the target is T5, Sentrin-specific protease 1. In words: Dose response confirmation of small molecule inhibitors of the catalytic domain of the SUMO protease, SENP1 in a FRET assay. Format: functional. To be noted: read-out: IC50_Mean.
The target of data set [23] is Hepatocyte nuclear factor 4-alpha (Homo sapiens, UniProt P41235). In kind it is functional, cell-based.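 Also: biochemical luminescence-based dose-response counterscreen measuring inhibition of HNF4 dimerization, run alongside a screen for blockers of ABHD5–perilipin-5 interaction; split luciferase complementation of HNF4 fusion proteins in cell lysate measuring dimerization.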
Data set [24] is described as follows: T. cruzi growth inhibition in host cells, dose response, cell-based, plate reader, dry powder, set 2 (AID 652275). In kind it is functional.
Data set [25] can be described thus: T. cruzi intracellular amastigote growth inhibition, dose response, imaging, CA-I/72 strain, bovine embryo skeletal muscle, dry powder (AID 651885). Format: functional, cell-based.
Another data set has as its target Protein Wnt-3a (Mus musculus, UniProt P27467). The experiment in a line: SAR analysis of small molecule antagonists of Gli-SUFU in a Wnt3a luminescent reporter assay. In kind it is functional.

T3 sequence (P49327 whole entry, the tested form may be a part): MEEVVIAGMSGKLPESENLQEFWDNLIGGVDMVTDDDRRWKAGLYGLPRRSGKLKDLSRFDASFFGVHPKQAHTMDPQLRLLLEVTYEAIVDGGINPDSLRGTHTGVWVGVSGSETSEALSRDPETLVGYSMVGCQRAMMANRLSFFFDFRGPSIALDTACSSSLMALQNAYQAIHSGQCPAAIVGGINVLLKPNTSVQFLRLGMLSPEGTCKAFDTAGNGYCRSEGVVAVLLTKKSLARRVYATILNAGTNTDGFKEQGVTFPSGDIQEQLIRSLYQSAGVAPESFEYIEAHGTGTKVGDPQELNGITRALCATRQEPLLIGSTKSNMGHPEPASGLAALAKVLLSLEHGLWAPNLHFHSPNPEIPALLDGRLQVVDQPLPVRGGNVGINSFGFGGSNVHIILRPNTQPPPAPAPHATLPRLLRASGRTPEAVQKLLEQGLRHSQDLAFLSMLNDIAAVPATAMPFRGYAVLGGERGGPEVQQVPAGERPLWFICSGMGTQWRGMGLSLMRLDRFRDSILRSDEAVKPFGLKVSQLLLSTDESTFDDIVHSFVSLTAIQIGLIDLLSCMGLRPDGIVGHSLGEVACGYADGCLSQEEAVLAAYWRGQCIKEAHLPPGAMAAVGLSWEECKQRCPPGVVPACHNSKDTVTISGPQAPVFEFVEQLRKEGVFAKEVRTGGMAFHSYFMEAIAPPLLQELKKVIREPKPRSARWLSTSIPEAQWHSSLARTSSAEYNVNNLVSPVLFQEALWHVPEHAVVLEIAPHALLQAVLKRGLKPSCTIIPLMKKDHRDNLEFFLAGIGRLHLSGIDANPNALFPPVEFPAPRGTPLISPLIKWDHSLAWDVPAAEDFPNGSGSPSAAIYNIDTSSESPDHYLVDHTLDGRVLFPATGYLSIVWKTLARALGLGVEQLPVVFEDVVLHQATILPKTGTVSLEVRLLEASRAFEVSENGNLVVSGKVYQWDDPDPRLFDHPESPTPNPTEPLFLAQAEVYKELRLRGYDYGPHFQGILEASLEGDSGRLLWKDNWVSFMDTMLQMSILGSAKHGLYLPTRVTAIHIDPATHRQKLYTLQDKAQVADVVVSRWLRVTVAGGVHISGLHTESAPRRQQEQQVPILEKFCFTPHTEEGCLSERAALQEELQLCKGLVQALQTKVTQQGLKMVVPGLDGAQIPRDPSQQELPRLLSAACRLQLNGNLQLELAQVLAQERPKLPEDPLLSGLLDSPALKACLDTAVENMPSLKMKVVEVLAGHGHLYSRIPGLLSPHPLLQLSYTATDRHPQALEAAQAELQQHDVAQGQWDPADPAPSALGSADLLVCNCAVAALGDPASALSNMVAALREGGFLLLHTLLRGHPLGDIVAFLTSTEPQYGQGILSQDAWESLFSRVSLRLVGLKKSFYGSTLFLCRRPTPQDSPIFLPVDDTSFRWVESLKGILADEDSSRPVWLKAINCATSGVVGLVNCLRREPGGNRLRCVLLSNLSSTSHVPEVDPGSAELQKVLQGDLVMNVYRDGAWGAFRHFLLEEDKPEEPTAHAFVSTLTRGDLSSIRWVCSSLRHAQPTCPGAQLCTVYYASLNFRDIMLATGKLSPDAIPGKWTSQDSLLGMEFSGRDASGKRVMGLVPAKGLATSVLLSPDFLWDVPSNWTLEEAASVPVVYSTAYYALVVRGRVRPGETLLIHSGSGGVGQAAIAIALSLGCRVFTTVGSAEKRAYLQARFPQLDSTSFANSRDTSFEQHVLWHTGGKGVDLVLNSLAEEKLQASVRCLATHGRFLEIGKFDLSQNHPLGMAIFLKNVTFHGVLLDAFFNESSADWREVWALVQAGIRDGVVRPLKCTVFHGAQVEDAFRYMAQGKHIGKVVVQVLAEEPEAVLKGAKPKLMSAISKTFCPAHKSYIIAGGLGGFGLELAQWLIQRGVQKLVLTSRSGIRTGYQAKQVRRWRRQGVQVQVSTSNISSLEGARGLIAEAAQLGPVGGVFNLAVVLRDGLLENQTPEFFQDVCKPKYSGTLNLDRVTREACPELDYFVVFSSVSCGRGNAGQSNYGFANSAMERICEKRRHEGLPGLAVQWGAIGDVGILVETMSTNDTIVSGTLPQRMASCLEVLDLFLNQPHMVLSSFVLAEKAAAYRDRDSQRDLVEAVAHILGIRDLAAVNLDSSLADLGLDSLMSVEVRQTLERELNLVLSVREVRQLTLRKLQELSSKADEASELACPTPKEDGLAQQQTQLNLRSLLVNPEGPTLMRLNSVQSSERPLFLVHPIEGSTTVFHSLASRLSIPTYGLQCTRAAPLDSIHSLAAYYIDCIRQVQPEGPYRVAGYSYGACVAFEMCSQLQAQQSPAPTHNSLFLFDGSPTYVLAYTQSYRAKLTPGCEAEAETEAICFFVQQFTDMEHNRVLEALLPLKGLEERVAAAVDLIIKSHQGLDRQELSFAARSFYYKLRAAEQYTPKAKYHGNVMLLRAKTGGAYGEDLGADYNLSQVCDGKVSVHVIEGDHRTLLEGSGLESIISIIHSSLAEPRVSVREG
T5 sequence (Q9P0U3 whole entry): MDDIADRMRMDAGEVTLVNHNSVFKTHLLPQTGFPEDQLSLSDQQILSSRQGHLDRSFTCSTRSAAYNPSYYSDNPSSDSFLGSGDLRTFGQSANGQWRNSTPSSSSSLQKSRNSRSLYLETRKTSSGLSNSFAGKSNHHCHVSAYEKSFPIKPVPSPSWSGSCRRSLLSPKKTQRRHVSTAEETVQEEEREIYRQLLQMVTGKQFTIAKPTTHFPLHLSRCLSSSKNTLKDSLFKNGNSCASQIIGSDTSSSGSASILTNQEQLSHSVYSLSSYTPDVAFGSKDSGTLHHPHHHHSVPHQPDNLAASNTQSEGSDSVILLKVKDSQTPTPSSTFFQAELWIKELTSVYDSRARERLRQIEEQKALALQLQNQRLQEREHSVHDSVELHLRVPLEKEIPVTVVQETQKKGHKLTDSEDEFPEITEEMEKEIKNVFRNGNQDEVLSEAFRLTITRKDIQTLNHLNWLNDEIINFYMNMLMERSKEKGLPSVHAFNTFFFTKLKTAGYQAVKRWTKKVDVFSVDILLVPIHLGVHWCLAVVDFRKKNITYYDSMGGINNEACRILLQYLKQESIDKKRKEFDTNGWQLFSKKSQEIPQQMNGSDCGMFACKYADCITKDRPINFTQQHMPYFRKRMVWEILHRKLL
Genome polyprotein, sequence (P29990 2492-3391 limits assumed): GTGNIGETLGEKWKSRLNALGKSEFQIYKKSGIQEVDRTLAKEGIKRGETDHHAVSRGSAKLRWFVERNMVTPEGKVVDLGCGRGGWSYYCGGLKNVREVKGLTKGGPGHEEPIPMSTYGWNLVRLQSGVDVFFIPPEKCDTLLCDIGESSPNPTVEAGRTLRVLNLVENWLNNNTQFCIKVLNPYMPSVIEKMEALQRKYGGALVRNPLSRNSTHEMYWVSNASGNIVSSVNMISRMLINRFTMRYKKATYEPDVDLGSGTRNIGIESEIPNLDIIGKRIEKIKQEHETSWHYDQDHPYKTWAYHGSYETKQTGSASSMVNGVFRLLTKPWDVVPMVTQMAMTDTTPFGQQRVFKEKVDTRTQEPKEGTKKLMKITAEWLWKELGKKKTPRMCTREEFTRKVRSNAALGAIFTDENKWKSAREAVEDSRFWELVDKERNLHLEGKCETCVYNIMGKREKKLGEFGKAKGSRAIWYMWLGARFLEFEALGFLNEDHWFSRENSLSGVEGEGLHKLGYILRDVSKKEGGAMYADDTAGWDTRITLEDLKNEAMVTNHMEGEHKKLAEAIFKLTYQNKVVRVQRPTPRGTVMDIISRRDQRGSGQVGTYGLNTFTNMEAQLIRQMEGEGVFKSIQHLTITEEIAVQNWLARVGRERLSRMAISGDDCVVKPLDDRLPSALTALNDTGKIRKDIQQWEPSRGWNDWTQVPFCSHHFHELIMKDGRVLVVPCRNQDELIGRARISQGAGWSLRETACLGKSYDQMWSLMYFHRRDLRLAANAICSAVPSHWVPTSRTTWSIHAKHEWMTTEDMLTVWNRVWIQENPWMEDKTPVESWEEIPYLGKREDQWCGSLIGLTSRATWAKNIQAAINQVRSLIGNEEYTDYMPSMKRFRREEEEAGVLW
Cytochrome P450 3A4, sequence (P08684 whole entry): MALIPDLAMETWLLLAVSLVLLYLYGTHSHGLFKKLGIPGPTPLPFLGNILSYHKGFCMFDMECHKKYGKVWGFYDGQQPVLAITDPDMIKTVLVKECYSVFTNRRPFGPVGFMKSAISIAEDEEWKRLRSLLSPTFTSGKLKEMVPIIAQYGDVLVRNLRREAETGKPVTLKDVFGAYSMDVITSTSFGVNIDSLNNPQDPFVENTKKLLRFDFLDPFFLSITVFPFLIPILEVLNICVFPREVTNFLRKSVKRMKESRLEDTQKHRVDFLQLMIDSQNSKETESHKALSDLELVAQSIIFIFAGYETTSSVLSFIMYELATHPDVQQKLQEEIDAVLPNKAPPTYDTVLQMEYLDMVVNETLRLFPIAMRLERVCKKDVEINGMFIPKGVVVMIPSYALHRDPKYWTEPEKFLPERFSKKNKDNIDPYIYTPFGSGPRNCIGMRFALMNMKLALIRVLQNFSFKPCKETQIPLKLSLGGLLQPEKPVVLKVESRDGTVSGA
Hepatocyte nuclear factor 4-alpha, sequence (P41235 whole entry, the tested form may be a part): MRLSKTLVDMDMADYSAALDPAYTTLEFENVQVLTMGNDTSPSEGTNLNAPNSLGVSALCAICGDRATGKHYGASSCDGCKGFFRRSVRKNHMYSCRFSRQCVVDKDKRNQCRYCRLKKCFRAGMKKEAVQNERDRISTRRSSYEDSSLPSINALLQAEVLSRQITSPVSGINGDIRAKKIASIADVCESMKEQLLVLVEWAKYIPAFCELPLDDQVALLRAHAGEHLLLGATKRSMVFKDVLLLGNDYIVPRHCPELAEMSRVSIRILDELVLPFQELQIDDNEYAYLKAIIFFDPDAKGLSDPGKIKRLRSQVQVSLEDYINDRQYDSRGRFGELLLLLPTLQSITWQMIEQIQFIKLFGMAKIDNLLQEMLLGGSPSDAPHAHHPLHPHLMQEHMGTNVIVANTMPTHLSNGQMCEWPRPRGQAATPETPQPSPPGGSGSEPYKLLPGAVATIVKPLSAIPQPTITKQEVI

As for `NNC(=O)c1[nH]cnc1C(=O)Nc1ccccn1`, the IC50 at Albumin was > 94.2 µM (inactive).

As usually defined, the AC50 is the concentration giving half of the maximal activity seen. `O=C(NC1(Cc2ccccc2)CCN(Cc2ccc(-c3ccccc3)cc2)C1=O)c1ccccc1` (stereo unspecified): the AC50 in [1] was > 52 µM (inactive); in data set [2], 5.14 µM (active); in data set [3], > 52 µM (inactive); in data set [4], 10.1 µM (active).

Regarding `Cc1ccc(-c2nc(NCCN(C)C)c3ccccc3n2)cc1`, the AC50 was 8.93 µM (active) in [5] and 12.6 µM (active) in data set [8]. Further, the EC50 in [6] was > 91.2 µM (inactive); in data set [7], 37.1 µM (inactive).

Turning to `COC(=O)c1ccc(Oc2coc3cc(OCc4cnn(-c5ccccc5)c4)ccc3c2=O)cc1`, the concentration at half-maximal activity (AC50) result at Cytochrome P450 3A4 was “inconclusive”; at Cytochrome P450 2C19, 0.708 µM (inconclusive); in data set [9] it was 38.3 µM (active).

Regarding `CCOCCCNc1nc(-c2ccccc2)nc2ccccc12`, the IC50 was 21.1 µM (inactive) in data set [10] and 12.3 µM (active) in data set [11].

For the compound `Cc1ccc(OCc2cc(C(=O)N3CCCC(O)C3)no2)cn1` (stereo unspecified), the AC50 in [12] is 61 µM (active).

As to `CCn1cc(Br)c(C(=O)Nc2ccccc2C(=O)OC)n1`, the IC50 in [13] is 35.9 µM (inactive); in data set [14], 35.9 µM (inactive); on Steroidogenic factor 1 it was 10.5 µM (inactive).

As to `CSc1nc(N)c(N=Nc2ccc([As](=O)(O)O)cc2)c(O)n1`, the IC50 on Fatty acid synthase [15] is 11.4 µM (active); on Fatty acid synthase [16], 4.99 µM (active); on Genome polyprotein, 57.3 µM (active); in data set [17], 9.91 µM (active); in data set [18], 39.9 µM (active).

For `C=CCNC(=O)c1cccc2c1C(=O)c1ccc(N3CCOCC3)cc1S2(=O)=O`, the IC50 in data set [19] is 13.9 µM (active); in data set [20], > 47.1 µM (inactive); in data set [22], 13.2 µM (active). Further, the EC50 in [21] is > 53 µM (inactive).

`CC(c1nc2ccccc2[nH]1)n1c(=O)c(-c2ccco2)nc2ccccc21` (stereo unspecified): in data set [23], the IC50 is 2.93 µM (active).

`Cc1cc(C(=O)Nc2cccc3c2O[C@@H](CN(C)Cc2ccc(Oc4ccccc4)cc2)[C@H](C)CN([C@@H](C)CO)C3=O)n(C)n1`: in data set [24], the AC50 is 1.28 µM (active). In data set [25], the IC50 is > 20 µM (inactive).

Consider `O=C(Nc1cc(N2CCCCC2)ncn1)c1ccc2ccccc2c1`, for which the IC50 at Protein Wnt-3a is > 21.8 µM (inactive).
